According to patent US7521528B2, “Conformationally constrained parathyroid hormone (PTH) analogs with lactam bridges” (The General Hospital Corporation, priority 2003, dated 2009):
Non-standard residues stand in square brackets, D forms with d. Residues, ends and D or L forms follow the SMILES beside them. hArg = N=C(N)NCCCC[C@H](N)C(=O)O

Legend:
[1] = biological target: T1, recombinant full-length P1R (Homo sapiens, UniProt Q03431); experiment: cAMP stimulation in HKRK-B28 cells; type: cell-based; details: for Emax at 1 µM: at 1×10^−6 M, percent of maximum response of PTH(1-34)
T1 construct: expressed in transfected cells
T1 sequence (Q03431 27-593): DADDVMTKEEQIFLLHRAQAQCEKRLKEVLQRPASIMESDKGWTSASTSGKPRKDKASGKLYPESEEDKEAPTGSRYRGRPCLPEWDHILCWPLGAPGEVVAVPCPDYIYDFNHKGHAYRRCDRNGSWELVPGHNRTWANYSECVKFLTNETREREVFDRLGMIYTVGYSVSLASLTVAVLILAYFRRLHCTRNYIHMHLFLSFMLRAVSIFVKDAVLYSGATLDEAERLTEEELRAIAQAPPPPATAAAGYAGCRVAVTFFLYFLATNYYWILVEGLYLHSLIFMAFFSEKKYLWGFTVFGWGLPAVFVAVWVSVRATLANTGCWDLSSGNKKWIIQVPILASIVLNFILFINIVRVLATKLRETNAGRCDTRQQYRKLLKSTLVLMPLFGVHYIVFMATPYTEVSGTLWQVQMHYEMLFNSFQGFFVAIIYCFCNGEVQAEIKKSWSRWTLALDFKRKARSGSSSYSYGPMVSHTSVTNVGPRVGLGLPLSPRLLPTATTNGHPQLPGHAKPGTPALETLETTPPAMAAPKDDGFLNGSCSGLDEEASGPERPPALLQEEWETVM
Protocol: (§1) Cell Culture. The cell line HKRK-B28 (Takasu, H., et al., J. Bone Miner. Res. 14:11-20 (1999)) was derived from the porcine kidney cell line, LLC-PK1 by stable transfection with plasmid DNA encoding the full-length P1R and expresses ˜280,000 receptors per cell. These cells, as well as COS-7 cells and SaOS-2-B10 cells, were cultured at […] in T-75 flasks ([…]) in Dulbecco's modified Eagle's medium (DMEM) supplemented with fetal bovine serum (10%), penicillin G (20 units/ml), streptomycin sulfate (20 μg/ml) and amphotericin B (0.05 μg/ml) in a humidified atmosphere containing 5% CO2. Stock solutions of EGTA/trypsin and antibiotics were from GIBCO; fetal bovine serum was from Hyclone Laboratories (Logan, Utah). COS-7 cells sub-cultured in 24-well plates were transfected with plasmid DNA (200 ng per well) encoding the wild-type human P1R or truncated human P1R deleted for residues (24-181) (Shimizu, M., et al., J. Biol. Chem. 275:21836-21843 (2000)) that was purified by cesium chloride/ethidium bromide density gradient centrifugation, and FuGENE 6 transfection reagent (Roche Indianapolis Ind.) according to the manufacturer's recommended procedure. All cells, in 24-well plates, were treated with fresh media and shifted to 33° C. for 12 to 24 h prior to assay.
(§2) cAMP Stimulation. Stimulation of cells with peptide analogs was performed in 24-well plates. Cells were rinsed with 0.5 mL of binding buffer (50 mM Tris-HCl, 100 mM NaCl, 5 mM KCl, 2 mM CaCl2, 5% heat-inactivated horse serum, 0.5% fetal bovine serum, adjusted to pH 7.5 with HCl) and treated with 200 μL of cAMP assay buffer (Delbecco's modified Eagle's medium containing 2 mM 3-isobutyl-1-methylxanthine, 1 mg/mL bovine serum albumin, 35 mM Hepes-NaOH, pH 7.4) and 100 μL of binding buffer containing varying amounts of peptide analog (final volume=300 μL). The medium was removed after incubation for 30 to 60 minutes at room temperature, and the cells were frozen on dry ice, lysed with 0.5 mL 50 mM HCl, and refrozen ([…]). The cAMP content of the diluted lysate was determined by radioimmunoassay. The EC50 response values were calculated using nonlinear regression (see below).
(§3) Data Calculation. Calculations were performed using Microsoft® Excel. Nonlinear regression analyses of binding and cAMP dose-response data were performed using the four-parameter equation: yp=Min+[(Max−Min)/(1+(IC50/x)^slope)]. The Excel Solver function was utilized for parameter optimization, as described previously (Carter, P. H., et al., Endocrinology 140: 4972-4981 (1999); Bowen, W. P., and Jerman, J. C., Trends in Pharmacol. Sci. 16: 413-417 (1995)). Differences between paired data sets were statistically evaluated using a one-tailed Student's t-test, assuming unequal variances for the two sets.
The effects of installing a direct covalent linkage between the side chains of the residues at positions 6 and 10 on PTH analog function were also assessed. To do this, paired Glu^6/Lys^10 or Lys^6/Glu^10 substitutions were introduced into an otherwise non-constrained PTH(1-14) analog scaffold AlaValAlaGluIleGln LeuMetHisGlnHarAlaLysTrp-amide (SEQ. ID. NO. 11) and formed an amide bond between the carboxylate side chain group of the introduced glutamate residue and the amino side chain group of the introduced lysine residue. For controls, a portion of each Glu/Lys- or Lys/Glu-substituted PTH(1-14) analog was preserved in the non-bridged form. The four peptides: [Glu^6, Lys^10]PTH(1-14)(linear)(SEQ. ID. NO. 24), [(Glu^6,Lys^10)lac.]PTH(1-14) cyclized via a 6-10 lactam bridge)(SEQ. ID. NO. 3), [Lys^6, Glu^10]PTH(1-14)(SEQ. ID. NO. 25), and [(Lys^6, Glu^10)lac.]PTH(1-14)(SEQ. ID. NO. 26) were first compared at a single dose of 10 μM for the capacity to stimulate cAMP formulation in HKRK-B28 cells, an LLC-PK1-derived cell line that expresses the recombinant full-length P1R at a moderate level (˜280,000 receptors per cell). […]

P1R [2] = biological target: T2, P1R (Homo sapiens, UniProt Q03431); experiment: cAMP stimulation in HKRK-B7 cells; type: cell-based; details: for Emax: cAMP response, Table 1
T2 construct: expressed in transfected cells
T2 sequence (Q03431 27-593): T1 sequence (Q03431 27-593)
Protocol: as §2, §3
The functional effects of substitutions at positions 6 and 10 in PTH using a PTH(1-11) analog AlaValAlaGluIleGlnLeuMetHisGlnArg-amide as the scaffold peptide (SEQ. ID. NO. 8). The peptides were analyzed for the capacity to stimulate cAMP formation in HKRK-B7 cells, an LLC-PK1-derived cell line that expresses via stable transfection the recombinant human P1R at high density (˜950,000 receptors per cell).

P1R-DelNt = biological target: T3, P1R-DelNt (Homo sapiens, UniProt Q03431); experiment: cAMP stimulation in LdelNt-2 cells; type: cell-based; details: for Emax: percent of maximum response of PTH(1-11)
T3 construct: expressed in transfected cells
T3 sequence (Q03431 with tags, fused parts or gaps limits assumed): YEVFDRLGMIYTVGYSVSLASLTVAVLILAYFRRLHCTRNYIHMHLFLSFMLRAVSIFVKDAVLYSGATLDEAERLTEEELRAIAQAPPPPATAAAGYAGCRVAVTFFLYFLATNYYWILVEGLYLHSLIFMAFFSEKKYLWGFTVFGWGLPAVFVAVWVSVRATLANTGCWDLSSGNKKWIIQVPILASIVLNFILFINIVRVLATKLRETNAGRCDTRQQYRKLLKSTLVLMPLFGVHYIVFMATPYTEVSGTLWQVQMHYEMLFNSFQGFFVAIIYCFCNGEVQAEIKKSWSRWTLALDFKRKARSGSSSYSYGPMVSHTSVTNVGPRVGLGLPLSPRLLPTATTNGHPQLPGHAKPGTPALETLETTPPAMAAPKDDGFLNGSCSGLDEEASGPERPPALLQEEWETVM
Protocol: as §2, §3
The two-domain hypothesis of the PTH-P1R interaction mechanism predicts that the effects of the substitutions at positions 6 and 10 observed with the above PTH(1-11) analogs involve interactions (direct or indirect) that occur within the juxtamembrane region of the receptor. To test this hypothesis, P1R-DelNt was utilized. P1R-DeNt is a P1R construct that is deleted for most of the N domain yet which retains nearly full capacity to be expressed on the cell surface and to stimulate cAMP formation in response to N-terminal PTH analogs, and an LLC-PK1-derived cell line was herein established, LdelNt-2, which stably expresses P1R-DelNt.

wild-type human P1R = biological target: T4, wild-type human P1R (Homo sapiens, UniProt Q03431); experiment: cAMP stimulation in COS-7 cells transiently transfected with P1R-WT; type: cell-based; details: at 1×10^−6M, percent of maximum response of PTH(1-34) on P1R-WT
T4 construct: expressed in transfected cells; host or cells: COS-7 (transient transfection, FuGENE 6)
T4 sequence (Q03431 27-593): T1 sequence (Q03431 27-593)
Protocol: as §1
cAMP Stimulation. Stimulation of cells with peptide analogs was performed in 24-well plates. […] The cAMP content of the diluted lysate was determined by radioimmunoassay. The EC50 response values were calculated using nonlinear regression (see below).
Data Calculation. […] Differences between paired data sets were statistically evaluated using a one-tailed Student's t-test, assuming unequal variances for the two sets.
(§4) The peptide PTH(1-34)([Tyr^34]hPTH(1-34)NH2)(SEQ. ID. NO. 11) and analogs containing the indicated residues at positions 6 and/or 10 were evaluated for the capacity to stimulate cAMP accumulation in COS-7 cells transiently transfected with either the wild-type P1R(P1R-WT) or P1R-DelNt. […]

[3] = biological target: T5, P1R-DelNt (truncated human P1R deleted for residues 24-181) (Homo sapiens, UniProt Q03431); experiment: cAMP stimulation in COS-7 cells transiently transfected with P1R-DelNt; type: cell-based; details: for Emax: COS-7, at 1×10^−5, percent of maximum response of PTH(1-34) on P1R-WT
T5 construct: expressed in transfected cells; host or cells: COS-7 (transient transfection, FuGENE 6)
T5 sequence (Q03431 with tags, fused parts or gaps limits assumed): T3 sequence (Q03431 with tags, fused parts or gaps limits assumed)
Protocol: as §1, §2
Data Calculation. Calculations were performed using Microsoft® Excel. […] Differences between paired data sets were statistically evaluated using a one-tailed Student's t-test, assuming unequal variances for the two sets.
as §4

P1R [4] = biological target: T2, P1R; details: cAMP-signaling, literature (Luck et al. 1999); cited from earlier work

Row | Emax (P1R [2]) [%] | Emax (P1R-DelNt) [%] | Emax at 1 µM [1] [%] | Emax at 1 µM (wild-type human P1R) [%] | Emax [3] [%] | Compound | other results
1 |  |  |  |  |  | CC[C@H](C)[C@H](NC(=O)[C@H](CCC(=O)O)NC(=O)[C@H](C)NC(=O)[C@@H](NC(=O)[C@H](C)N)C(C)C)C(=O)N[C@@H](CCCCN)C(=O)N[C@@H](CC(C)C)C(=O)N[C@@H](CCSC)C(=O)N[C@@H](Cc1c[nH]cn1)C(=O)N[C@@H](CCC(=O)O)C(=O)N[C@@H](CCCCNC(=N)N)C(=O)N[C@@H](C)C(=O)N[C@@H](CCCCN)C(=O)N[C@@H](Cc1c[nH]c2ccccc12)C(N)=O [[Lys^6, Glu^10]PTH(1-14)] (H-AVAEIKLMHE[hArg]AKW-NH2) | Emax ([1]; percent of maximum response of PTH(1-14), Table 3): 37 ± 5%
2 | 41 ± 2 | 42 ± 5 |  |  |  | H-AVAEIALMHAR-NH2 [[Ala^6, Ala^10]PTH(1-11)] | potency relative to [Ala^6]PTH(1-11) (P1R [2]): two-fold greater; potency relative to [Ala^6]PTH(1-11) (P1R-DelNt): two-fold lower
3 | 26 ± 2 | 14 ± 2 |  |  |  | H-AVAEIALMHQR-NH2 [[Ala^6]PTH(1-11)] | EC50/potency difference versus parent PTH(1-11) (P1R-DelNt): ~3 fold
4 | 88 ± 5 | 79 ± 5 |  |  |  | H-AVAEIQLMHAR-NH2 [[Ala^10]PTH(1-11)] | 
5 | 100 ± 3 | 100 ± 2 |  |  |  | H-AVAEIQLMHQR-NH2 [PTH(1-11)(SEQ. ID. NO. 8), AlaValAlaGluIleGlnLeuMetHisGlnArg-amide] | fold increase in cAMP formation (P1R [2]): 75 fold; EC50/potency difference versus parent PTH(1-11) (P1R-DelNt): 22 fold; fold increase in cAMP formation/accumulation (P1R-DelNt): 55 fold; maximum cAMP response observed (P1R-DelNt; n=3): 113±4 pM of cAMP per well
6 |  |  | 107 ± 8 | 121 ± 7 | 44 ± 2 | H-SVSEIALMHALGKHLNSMERVEWLRKKLQDVHNY-NH2 [[Ala^6,10]PTH(1-34)] | cAMP-signaling potency (in words) ([3]; COS-7 cells expressing P1R-DelNt): as potent as PTH(1-34)
7 |  |  | 105 ± 10 | 104 ± 2 | 4.5 ± 0.9 | H-SVSEIALMHNLGKHLNSMERVEWLRKKLQDVHNY-NH2 [[Ala^6]PTH(1-34)] | 
8 |  |  | 106 ± 7 | 96 ± 4 | 46 ± 2 | H-SVSEIQLMHALGKHLNSMERVEWLRKKLQDVHNY-NH2 [[Ala^10]PTH(1-34)] | 
9 |  |  |  |  |  | PTH(1-34): first 34 amino acids of PTH, literature data | EC50 (P1R [4]): ~2 nM
